Data as given in patent US4895842A, “Phenylalanine derivative and proteinase inhibitor” (Shosuke Okamoto, priority 1985, dated 1990).
Counter-ions that a name gives are not always drawn. Like-named read-outs stand apart in the source and are kept apart here.

Assays:
human plasma kallikrein = human plasma kallikrein (Homo sapiens, UniProt P03952); assay: Anti-plasma kallikrein activity: inhibition of S-2302 decomposition; format: biochemical; details: S-2302 substrate, read-out: Plasma Kallikrein S-2302 (I50)
Chain of human plasma kallikrein (P03952 391-638 limits assumed): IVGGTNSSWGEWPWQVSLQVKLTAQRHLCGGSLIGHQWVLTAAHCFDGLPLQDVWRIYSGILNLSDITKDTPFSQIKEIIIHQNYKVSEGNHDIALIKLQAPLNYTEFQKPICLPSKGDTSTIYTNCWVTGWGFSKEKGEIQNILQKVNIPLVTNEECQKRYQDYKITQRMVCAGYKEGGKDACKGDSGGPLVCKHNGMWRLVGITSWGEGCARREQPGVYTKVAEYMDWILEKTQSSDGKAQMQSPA
Chain of human plasma kallikrein (P03952 20-390 partner limits assumed): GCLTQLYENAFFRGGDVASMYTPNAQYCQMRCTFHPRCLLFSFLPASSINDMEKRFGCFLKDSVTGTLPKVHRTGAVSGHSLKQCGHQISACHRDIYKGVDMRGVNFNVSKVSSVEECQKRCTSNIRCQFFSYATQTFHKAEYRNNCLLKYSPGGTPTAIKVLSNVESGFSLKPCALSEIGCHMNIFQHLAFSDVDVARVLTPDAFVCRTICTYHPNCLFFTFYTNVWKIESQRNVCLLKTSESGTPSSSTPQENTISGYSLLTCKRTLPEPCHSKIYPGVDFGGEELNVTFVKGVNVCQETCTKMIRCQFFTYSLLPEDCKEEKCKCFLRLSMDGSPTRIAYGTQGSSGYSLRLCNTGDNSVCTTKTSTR
Experimental: Determination of inhibition activity for S-2302 decomposition
An inhibitor sample is dissolved in a 0.05M Tris-hydrochloric acid buffer solution (pH=7.8) to make the total volume to 400 μl. To this solution, 50 μl of a 2 mM S-2302 solution is added and the mixture is incubated at a temperature of 37° C. for 5 minutes in a constant temperature bath. Then, 50 μl of a 0.12 unit/ml human plasma kallikrein is added and the mixture is incubated at a temperature of 37° C. for 5 minutes. Thereafter, 50 μl of 50% acetic acid is added to terminate the reaction. The absorbance of the p-nitroaniline formed in the reaction mixture is measured at 405 nm. Thus, the concentration I50 (μmol) of the inhibitor sample, at which the absorbance is one half (i.e., 1/2) of that obtained in the absence of the inhibitor sample, is determined.

bovine thrombin [1] = target: T1, bovine thrombin (Bos taurus, UniProt P00735); assay: Antithrombin activity: inhibition of S-2238 decomposition; format: biochemical; details: S-2238 substrate, read-out: Thrombin S-2238 (I50)
Experimental: (ii) Determination of inhibition activity for S-2238 decomposition
An inhibitor sample is dissolved in a 0.05M Tris-hydrochloric acid buffer solution (pH=8.3) to make a total volume of 400 μl. To this solution, 50 μl of a 0.2 mM S-2238 solution is added and the mixture is incubated at a temperature of 37° C. for 5 minutes in a constant temperature bath. Then, 50 μl of a 0.2 unit/ml bovine thrombin solution is added thereto and the absorbance, at 405 nm, of the p-nitroaniline formed per minute is determined at a temperature of 37° C. by using the so-called initial velocity method. Thus, the concentration I50 (μmol) of the inhibitor sample at which the absorbance is one half (i.e., 1/2) of that obtained in the absence of the inhibitor sample, is determined.

human plasmin [2] = target: T2, human plasmin (Homo sapiens, UniProt P00747); assay: Antiplasmin activity: inhibition of fibrin decomposition; format: biochemical
T2 sequence (P00747 581-810 limits assumed): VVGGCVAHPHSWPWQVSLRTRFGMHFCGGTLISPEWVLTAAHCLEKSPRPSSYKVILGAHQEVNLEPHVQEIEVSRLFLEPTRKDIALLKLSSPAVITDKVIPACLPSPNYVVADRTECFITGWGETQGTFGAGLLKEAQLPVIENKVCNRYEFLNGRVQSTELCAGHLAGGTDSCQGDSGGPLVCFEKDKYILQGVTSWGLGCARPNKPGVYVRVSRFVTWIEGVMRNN
T2 sequence (P00747 97-580 partner limits assumed): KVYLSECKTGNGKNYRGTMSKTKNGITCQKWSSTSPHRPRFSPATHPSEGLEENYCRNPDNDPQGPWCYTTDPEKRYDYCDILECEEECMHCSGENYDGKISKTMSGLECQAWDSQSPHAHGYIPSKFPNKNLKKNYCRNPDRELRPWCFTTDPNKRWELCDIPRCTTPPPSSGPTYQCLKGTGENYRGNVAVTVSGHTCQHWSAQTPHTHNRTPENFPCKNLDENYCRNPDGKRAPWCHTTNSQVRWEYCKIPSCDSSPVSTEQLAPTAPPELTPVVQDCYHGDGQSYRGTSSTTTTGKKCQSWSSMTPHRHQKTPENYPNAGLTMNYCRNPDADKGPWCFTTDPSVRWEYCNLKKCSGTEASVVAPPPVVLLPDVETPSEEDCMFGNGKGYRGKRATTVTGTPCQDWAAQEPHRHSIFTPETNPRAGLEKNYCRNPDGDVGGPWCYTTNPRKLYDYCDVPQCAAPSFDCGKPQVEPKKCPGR
Experimental: (i) Determination of inhibition activity for fibrin decomposition
An inhibitor sample is dissolved in a 0.18M borate-physiological salt buffer solution (pH=7.4) to make the total volume to 600 μl. To this buffer solution, 200 μl of a 0.2% bovine fibrinogen, 100 μl of a 0.3 casein unit/ml human plasmin solution, and 100 μl of a 50 unit/ml bovine thrombin solution, all dissolved in the above-mentioned buffer, are added at a temperature of 37° C. in a constant temperature bath. Then, the dissolution time of the fibrin mass formed above is determined.

bovine thrombin [3] = target: T1, bovine thrombin; assay: Antithrombin activity: inhibition of fibrin formation from fibrinogen; format: biochemical
Experimental: (i) Determination of inhibition activity against fibrin formation
An inhibitor sample is dissolved in a 0.18M borate-physiological salt buffer solution (pH=7.4) to make the total volume to 500 μl. To this solution, 400 μl of a 0.2% bovine fibrinogen solution and 100 μl of a 4 unit/ml bovine thrombin solution are added at a temperature of 37° C. in a constant temperature bath. Thus, a coagulation time is determined. The inhibitor concentration I50 (μmol), at which the coagulation time obtained in the absence of the inhibitor is extended twice, is determined.

human plasmin [4] = target: T2, human plasmin; assay: biochemical
Experimental: An inhibitor sample is dissolved in a 0.05M Tris-hydrochloric acid buffer solution (pH=7.4) to make the total volume of 400 μl. […] Then, 50 μl of a 0.2 casein unit/ml human plasmin is added and the mixture is incubated at a temperature of 37° C. for 4 minutes. Thereafter, the reaction is stopped by adding 50 μl of 50% acetic acid.
Thus, the concentration I50 (μmol) of the inhibitor sample, at which the absorbance is one half (i.e., 1/2) of that obtained in the absence of the inhibitor, is determined.

human urokinase = human urokinase (Homo sapiens, UniProt P00749); assay: biochemical; details: S-2444 substrate, read-out: Urokinase S-2444 (I50)
Experimental: Determination of inhibition activity for S-2444 decomposition
An inhibitor sample is dissolved in a 0.05M Tris-hydrochloric acid buffer solution (pH=8.8) to make the total volume to 400 μl. To this solution, 50 μl of a 1 mM S-2444 solution is added and the mixture is incubated at a temperature of 37° C. for 5 minutes in a constant temperature bath. Then, 50 μl of a 500 unit/ml human urokinase is added and the mixture is incubated at a temperature of 37° C. for 5 minutes. Thereafter, 50 μl of 50% acetic acid is added to terminate the reaction. The absorbance of the p-nitroaniline formed in the reaction mixture is measured at 405 nm. Thus, the concentration I50 (μmol) of the inhibitor sample, at which the absorbance is one half (i.e., 1/2) of that obtained in the absence of the inhibitor sample, is determined.

bovine trypsin = target: T3, bovine trypsin (Bos taurus, UniProt P00760); assay: Antitrypsin activity: inhibition of S-2238 decomposition; format: biochemical; details: Table 2; S-2238 substrate, pH 8.1, 37° C.; read-out: Trypsin S-2238 (I50)
T3 sequence (P00760 24-246): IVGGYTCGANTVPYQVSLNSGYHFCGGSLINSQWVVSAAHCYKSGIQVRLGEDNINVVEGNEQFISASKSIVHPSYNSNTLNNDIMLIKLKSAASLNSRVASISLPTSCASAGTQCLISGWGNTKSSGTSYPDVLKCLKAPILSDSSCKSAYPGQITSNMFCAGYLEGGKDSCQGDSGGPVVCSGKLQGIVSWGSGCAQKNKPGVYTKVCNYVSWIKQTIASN
Experimental: Determination of inhibition activity against S-2238 decomposition
An inhibitor sample is dissolved in a 0.05M Tris-imidazole buffer solution (pH=8.1) and 125 μl of a 1 mM S-2238 solution is added to make the total volume to 1.20 ml. The mixture is incubated at a temperature of 37° C. for 5 minutes in a constant temperature bath. To this mixture, 0.05 ml of bovine trypsin is added and the absorbance, at 405 nm, of the p-nitroaniline formed per minute is determined at a temperature of 37° C. by using the so-called initial velocity method. Thus, the concentration I50 (μmol) of the inhibitor sample, at which the absorbance is one half (i.e., 1/2) of that obtained in the absence of the inhibitor sample, is determined.

[5] = Table 2, concentration at which fibrin dissolution time is extended twice, pH 7.4, 37° C., read-out: Plasmin Fibrin (I50)

Row | IC50 (human plasma kallikrein; Table 2, pH 7.8, 37° C.) [µM] | IC50 (bovine thrombin [1]; Table 2, pH 8.3, 37° C.) [µM] | IC50 (human plasmin [2]; [5]) [µM] | IC50 (bovine thrombin [3]) [µM] | IC50 (human plasmin [4]; read-out: Plasmin S-2251 (I50)) [µM] | IC50 (human urokinase; Table 2, pH 8.8, 37° C.) [µM] | IC50 (bovine trypsin) [µM] | IC50 (human plasmin [2]) [µM] | IC50 (human plasmin [4]) [µM] | IC50 (human plasma kallikrein; Table 4, comparative compounds of Table 3, pH 7.8) [µM] | IC50 (bovine thrombin [1]; Table 4, comparative compounds of Table 3, pH 8.3) [µM] | IC50 (human plasmin [2]; Table 4, comparative compounds of Table 3, fibrin dissolution time extended twice, read-out: Plasmin Fibrin (I50)) [µM] | IC50 (bovine thrombin [3]; Table 4, comparative compounds of Table 3, coagulation time extended twice, read-out: Thrombin Fibrinogen (I50)) [µM] | IC50 (human plasmin [4]; Table 4, comparative compounds of Table 3, S-2251 substrate, pH 7.4, 37° C., read-out: Plasmin S-2251 (I50)) [µM] | IC50 (human urokinase; Table 4, comparative compounds of Table 3, pH 8.8) [µM] | Structure (SMILES)
1 | 0.58 | > 100 | 0.29 | > 100 | 0.64 | 45 | – | – | – | – | – | – | – | – | – | CC(=O)c1ccc(NC(=O)[C@H](Cc2ccc(OC(=O)OCc3ccccc3)cc2)NC(=O)[C@H]2CC[C@H](CN)CC2)cc1 [compound 146]
2 | 18 | – | 0.12 | – | 0.78 | > 100 | 1.2 | – | – | – | – | – | – | – | – | CC1CCC(NC(=O)C(Cc2ccc(OCc3cccc(Cl)c3)cc2)NC(=O)c2ccc(CN)cc2)CC1C (stereo not drawn) [compound 103]
3 | 6 | > 100 | – | > 100 | – | 3.3 | – | 3.3 | 14 | – | – | – | – | – | – | NC[C@H]1CC[C@H](C(=O)NC(Cc2ccc([N+](=O)[O-])cc2)C(=O)Nc2ccc(C(=O)c3ccccc3)cc2)CC1 (mixture of isomers) [Compound No. 31, N-(trans-4-aminomethylcyclohexylcarbonyl)-4-nitro-D,L-phenylalanine 4-benzoylanilide hydrochloride]
4 | 2.1 | > 400 | 4.4 | > 500 | 168 | 80 | – | – | – | – | – | – | – | – | – | CC(=O)c1ccc(NC(=O)[C@H](Cc2ccc(OC(C)C)cc2)NC(=O)[C@H]2CC[C@H](CN)CC2)cc1 [compound 14]
5 | 0.38 | – | 0.13 | – | 0.49 | 47 | 0.8 | – | – | – | – | – | – | – | – | CC(=O)c1ccc(NC(=O)[C@H](Cc2ccc(OCc3cc(Cl)ccc3Cl)cc2)NC(=O)[C@H]2CC[C@H](CN)CC2)cc1 [compound 125]
6 | 0.56 | – | 0.28 | – | 1.5 | 23 | – | – | – | – | – | – | – | – | – | CC(=O)c1ccc(NC(=O)[C@H](Cc2ccc(OCc3ccc(Br)cc3)cc2)NC(=O)[C@H]2CC[C@H](CN)CC2)cc1 [compound 17]
7 | 1.2 | – | 0.14 | > 20 | 1.1 | 40 | 0.44 | – | – | – | – | – | – | – | – | NC[C@H]1CC[C@H](C(=O)N[C@@H](Cc2ccc(OCc3cccc(Cl)c3)cc2)C(=O)Nc2ccc(C(=O)c3ccccc3)cc2)CC1 [compound 67]
8 | 24 | – | 1.4 | > 50 | 5.6 | > 100 | 10 | – | – | – | – | – | – | – | – | Cc1ccc(NC(=O)[C@H](Cc2ccc(OCc3ccccc3)cc2)NC(=O)c2ccc(CN)cc2)cc1 [compound 63]
9 | 19 | – | 0.54 | > 50 | 1.4 | > 150 | 3 | – | – | – | – | – | – | – | – | CC1CCC(NC(=O)C(Cc2ccc(OCc3ccc(F)cc3)cc2)NC(=O)c2ccc(CN)cc2)CC1C (stereo not drawn) [compound 106]
10 | 3.5 | – | 0.83 | > 200 | 1.5 | 6.3 | 0.45 | – | – | – | – | – | – | – | – | N=C(N)c1ccc(NC(=O)[C@H](Cc2ccc(OCc3ccccc3)cc2)NC(=O)[C@H]2CC[C@H](CN)CC2)cc1 [compound 126]
11 | 0.16 | > 50 | 0.31 | > 25 | 1.4 | 120 | – | – | – | – | – | – | – | – | – | CC(=O)c1ccc(NC(=O)[C@H](Cc2ccc(OCc3c(Cl)cccc3Cl)cc2)NC(=O)[C@H]2CC[C@H](CN)CC2)cc1 [compound 20]
12 | 0.37 | – | 0.051 | > 50 | 0.23 | 43 | 0.95 | – | – | – | – | – | – | – | – | CC(=O)c1ccc(NC(=O)[C@H](Cc2ccc(OC(=O)OCc3ccccc3Br)cc2)NC(=O)[C@H]2CC[C@H](CN)CC2)cc1 [compound 144]
13 | 40 | – | 1.4 | – | 3.2 | > 100 | 9.5 | – | – | – | – | – | – | – | – | NCc1ccc(C(=O)N[C@@H](Cc2ccc(OCc3ccccc3)cc2)C(=O)NC2CCCCC2)cc1 [Compound No. 114, N-(4-aminomethylbenzoyl)-4-benzyloxy-L-phenylalanine cyclohexylamide hydrochloride]
14 | – | – | – | – | – | – | – | – | – | > 200 | > 200 | > 200 | > 200 | > 200 | > 200 | CC(=O)NC(Cc1ccc(OCc2ccccc2)cc1)C(=O)N(C)C (stereo not drawn) [Table 3 Compound No. 5, reference compound]
15 | 1.2 | – | 0.28 | – | 1.3 | 19 | – | – | – | – | – | – | – | – | – | NC[C@H]1CC[C@H](C(=O)N[C@@H](Cc2ccc(OCc3ccccc3)cc2)C(=O)Nc2ccc(C(=O)c3ccccc3)cc2)CC1 [compound 19]
16 | 0.46 | – | 0.091 | – | 0.58 | 70 | 0.84 | – | – | – | – | – | – | – | – | CC(=O)c1ccc(NC(=O)[C@H](Cc2ccc(OCc3ccc(Cl)c(Cl)c3)cc2)NC(=O)[C@H]2CC[C@H](CN)CC2)cc1 [compound 45]
17 | 22 | – | 1 | > 50 | 2.9 | > 200 | 5 | – | – | – | – | – | – | – | – | Cc1ccc(NC(=O)[C@H](Cc2ccc(OCc3ccccc3)cc2)NC(=O)c2ccc(CN)cc2)cc1C [compound 65]
18 | – | > 400 | – | > 500 | – | – | – | – | – | – | – | – | – | – | – | NC[C@H]1CC[C@H](C(=O)N[C@@H](Cc2ccc(OCc3ccccc3)cc2)C(=O)Nc2cccnc2)CC1 [Compound No. 16, N-(trans-4-aminomethylcyclohexylcarbonyl)-4-benzyloxy-L-phenylalanine 3-pyridylamide dihydrochloride]
19 | > 25 | – | 1.7 | > 50 | 8.3 | > 20 | 18 | – | – | – | – | – | – | – | – | NCc1ccc(C(=O)NC(Cc2ccc(OCc3ccccc3)cc2)C(=O)NCc2ccc(F)cc2)cc1 (stereo not drawn) [compound 113]
20 | 0.84 | – | 0.41 | – | 0.79 | 11 | – | – | – | – | – | – | – | – | – | CC(=O)c1ccc(NC(=O)[C@H](Cc2ccc(OCc3ccc(F)cc3)cc2)NC(=O)[C@H]2CC[C@H](CN)CC2)cc1 [Compound No. 12]
21 | 0.46 | – | 0.39 | – | 0.9 | 25 | 0.84 | – | – | – | – | – | – | – | – | CC(=O)c1ccc(NC(=O)[C@H](Cc2ccc(OCc3ccc(Cl)cc3)cc2)NC(=O)[C@H]2CC[C@H](CN)CC2)cc1 [Compound No. 5, N-(trans-4-aminomethylcyclohexylcarbonyl)-4-(4-chlorobenzyloxy)-L-phenylalanine 4-acetylanilide]
